Data published in paper PMC4648528, “Interplay between Structure and Charge as a Key to Allosteric Modulation of Human 20S Proteasome by the Basic Fragment of HIV-1 Tat Protein” (PLoS ONE, 2015).
Like-named read-outs stand apart in the source and are kept apart here. Square brackets hold non-standard residues; d marks the D form. Ends that are not written are not given here. Peptide text beside a SMILES is read from it. Oic = O=C(O)[C@@H]1C[C@@H]2CCCC[C@@H]2N1; dOic = O=C(O)[C@H]1C[C@H]2CCCC[C@H]2N1; Tic = O=C(O)[C@@H]1Cc2ccccc2CN1; dTic = O=C(O)[C@H]1Cc2ccccc2CN1

Key:
human 20S proteasome [1] = target: T1, human 20S proteasome; experiment: ChT-L peptidase activity of SDS-activated human 20S proteasome (SucLLVY-MCA); assay type: biochemical
T1 construct: isolated from human erythrocytes (Enzo Life Sciences); purchased Enzo Life Sciences; host or cells: human erythrocytes
Experimental: Influence of the designed peptides on catalytic properties of the 20S proteasome was tested using the proteasome at a final concentration of 1.5 nM, isolated from human erythrocytes (Enzo Life Sciences) and activated with 0.01% sodium dodecyl sulfate. Succinyl-Leu-Leu-Val-Tyr-4-methylcoumarin-7-amide (SucLLVY-MCA) was employed as a model fluorogenic substrate to determine the activity of ChT-L peptidase. All assays were performed in the 96-well plate format using a reaction volume of 100 uL. Tests were carried out in 50 mM Tris/HCl, pH 8.0 containing 0.5 mM ethylenediamine tetraacetic acid. Stock solutions of the substrates and the tested peptides were prepared by dissolution of the lyophilized compounds in dimethyl sulfoxide (DMSO). The content of DMSO never exceeded 3% of the final reaction volume. Compounds were tested in the concentration range of 0.05–10 μM. The substrate was added at 100 μM final concentration (1% of the volume). The release of an aminomethyl coumarin (AMC) group was followed by measuring fluorescence emission at 460 nm in 2 min. intervals for up to 60 min. at 37°C (Fluoroskan Ascent). The peptidolytic activity was calculated as nanomoles of the released AMC product per mg of CP per second. The half maximal inhibitory concentration expressed in μM concentration was calculated with SigmaPlot 12.3 where exponential equation estimates based on fitting of two or three logistic parameters were employed.

human 20S proteasome [2] = target: T1, human 20S proteasome; experiment: Microscale thermophoresis with fluorescently labeled human 20S proteasome; assay type: binding; details: for EC50: MST Hill fit, concentrations listed in nM, read-out: EC50, fitted value (Hill method); for Kd: MST
From the text: Microscale thermophoresis detects changes in the mobility of protein molecules in temperature gradients generated by IR laser radiation. The thermophoretic effect is very sensitive to induced by a ligand binding alterations in the charge, size and/or the hydration shell of a studied protein [39]. Quantification of these changes is based on either intrinsic fluorophores such as tryptophan or covalently bound dyes. Titration of the selected peptides/peptidomimetics to a constant concentration of the fluorescently labeled human 20S proteasome allowed us to determine ligand dissociation constants (Kd), and systematically compare their binding affinity.
The human 20S proteasome was labeled using monolith NT^TM Protein Labeling Kit RED-NHS (NanoTemper Technologies), according to the protocol provided by the supplier. During the measurements concentration of the labeled protein was kept constant at 3 nM. […] The binding reactions were carried out in 50 mM Tris/HCl buffer containing 0.5 mM EDTA, pH 8.0 with an addition of sodium dodecyl sulfate at the final concentration of 0.005%. Measurements were performed in standard treated capillaries on a Monolith NT.115 system (NanoTemper Technologies). Capillaries were illuminated at 25°C with 80% LED power for 5 s. […] Fluorescence intensities were measured at 6–8 s and 34–36 s, and fluorescence intensity ratios of hot/cold were used as the assay readout. Kd values were determined using the internal evaluation software.

human 20S proteasome [3] = test system: T1, human 20S proteasome; experiment: Peptide degradation test with 20S proteasome (RP-HPLC); assay type: in vitro ADME
Experimental: Susceptibility of the designed modulators to degradation by the 20S proteasome was examined by reversed-phase high-performance liquid chromatography (S10 Fig). The compounds were dissolved in water or DMSO to 10 mM concentration and then diluted with 25 mM Tris buffer containing 0.25 mM EDTA (pH 8.0) to the final concentration of 1 mM. 2.5 μg of human 20S proteasome (Enzo Life Sciences) was added to the mixture, which then, after adjustment of its final volume to 100 μl, was incubated at 37°C for 3 h. The reaction was stopped by adding 5 μl of 10% aqueous trifluoroacetic acid. Next, 40 μl of the mixture, along with the control not containing the 20S, were injected onto C8 Kromasil column (4,6 x 250 mm, 100 Å, 5 μm). […]
incubation with the proteasome under standard conditions used in our tests. For comparison we also included the degradation profile of Tat1_A4-5,8-9, which was not able to inhibit the proteasome […]
(1 picture or pasted object on this page, not shown here)

20S proteasome = details: cited from earlier work
From the text: Intriguingly, we first identified the importance of structural dynamics of this peptide, when we compared the FTIR spectra collected in liquid and films. […] The best studied and shortest 11-residue PR11 may contain a structural turn and is hypothesized to bind at the outer edge of the proteasomal α ring. Another example is octa-arginine, inhibiting the proteasome peptidase activity in vitro with high- ...

[4] = ChT-L activity, average of repetitions, read-out: Calculated IC50, Average
[5] = ChT-L peptidase, 1.5 nM 20S from human erythrocytes activated with 0.01% SDS, 100 μM SucLLVY-MCA, 50 mM Tris/HCl pH 8.0, 0.5 mM EDTA, 37°C, mean (±SD), read-out: IC50
[6] = ChT-L activity, Repetition 1, read-out: Calculated IC50
[7] = average of three repetitions, read-out: Kd, Average

| Compound | IC50 (human 20S proteasome [1]; [4]) [nM] | IC50 (human 20S proteasome [1]; [5]) [nM] | other results |
| --- | --- | --- | --- |
| GRKAARQRRRPS [Tat1_A4-5] | 264 | 260 | – |
| GRKKAAARRRPS [Tat1_A5-7] | 315 | 310 | – |
| GRKKRRQAAAPS [Tat1_A8-10] | 2520 | 2520 | IC50 (human 20S proteasome [1]; [6]): 1990 nM; EC50 (human 20S proteasome [2]; Repetition 1): 13800 ± 0.227 nM; EC50 (human 20S proteasome [2]; Repetition 2): 12800 ± 0.251 nM; EC50 (human 20S proteasome [2]; Repetition 3): 13800 ± 0.218 nM; Kd (human 20S proteasome [2]; [7]): 13500 nM |
| N=C(N)NCCC[C@H](NC(=O)CN)C(=O)N[C@@H](CCCCN)C(=O)N1Cc2ccccc2C[C@@H]1C(=O)N1[C@H](C(=O)N[C@@H](CCCNC(=N)N)C(=O)N[C@@H](CCC(N)=O)C(=O)N[C@@H](CCCNC(=N)N)C(=O)N[C@@H](CCCNC(=N)N)C(=O)N[C@@H](CCCNC(=N)N)C(=O)N2CCC[C@H]2C(=O)N[C@@H](CO)C(=O)O)C[C@@H]2CCCC[C@@H]21 [Tat1_4-5TO] (HELM PEPTIDE1{G.R.K.[O=C([C@H]1Cc2ccccc2CN1[*:1])[*:2]].[O=C([C@@H]1C[C@@H]2CCCC[C@@H]2N1[*:1])[*:2]].R.Q.R.R.R.P.S}$$$$V2.0) | 239 | 240 | EC50 (human 20S proteasome [2]; Repetition 1): 8730 ± 0.0212 nM; EC50 (human 20S proteasome [2]; Repetition 2): 9260 ± 0.0182 nM; EC50 (human 20S proteasome [2]; Repetition 3): 8730 ± 0.0265 nM; Kd (human 20S proteasome [2]; [7]): 8910 nM |
| GRKAARQAARPS [Tat1_A4-5,8–9] | – | 4660 | Degradation by the 20S proteasome (human 20S proteasome [3]; pH 8): partially degraded by the proteasome; IC50 (human 20S proteasome [1]; [6]): 4890 nM; IC50 (human 20S proteasome [1]; ChT-L activity, Repetition 2, read-out: Calculated IC50): 3470 nM; IC50 (human 20S proteasome [1]; ChT-L activity, Repetition 3, read-out: Calculated IC50): 4430 nM |
| GRKKRRAAAAPS [Tat1_A7-10] | 2790 | 2790 | – |
| N=C(N)NCCC[C@H](NC(=O)CN)C(=O)N[C@@H](CCCCN)C(=O)N[C@@H](CCCCN)C(=O)N[C@@H](CCCNC(=N)N)C(=O)N[C@@H](CCCNC(=N)N)C(=O)N[C@@H](CCC(N)=O)C(=O)N1Cc2ccccc2C[C@H]1C(=O)N1[C@@H](C(=O)N[C@@H](CCCNC(=N)N)C(=O)N2CCC[C@H]2C(=O)N[C@@H](CO)C(=O)O)C[C@H]2CCCC[C@H]21 [Tat1_8-9TOD] | 122 | 120 | IC50 lower than for counterpart with d-Tic,l-Oic unit (Tat1_8-9TO) (human 20S proteasome [1]; ChT-L activity): about 30%; EC50 (human 20S proteasome [2]; Repetition 1): 8320 ± 0.0423 nM; EC50 (human 20S proteasome [2]; Repetition 2): 7550 ± 0.0388 nM; EC50 (human 20S proteasome [2]; Repetition 3): 8560 ± 0.0538 nM; Kd (human 20S proteasome [2]; [7]): 8140 nM |
| N=C(N)NCCC[C@H](NC(=O)CN)C(=O)N[C@@H](CCCCN)C(=O)N[C@@H](CCCCN)C(=O)N[C@@H](CCCNC(=N)N)C(=O)N[C@@H](CCCNC(=N)N)C(=O)N[C@@H](CCC(N)=O)C(=O)N[C@@H](CCCNC(=N)N)C(=O)N[C@@H](CCCNC(=N)N)C(=O)N[C@@H](CCCNC(=N)N)C(=O)N1CCC[C@H]1C(=O)N[C@@H](CO)C(=O)O [Tat1] | – | – | Degradation by the 20S proteasome (human 20S proteasome [3]; 1 mM peptide, 2.5 μg human 20S proteasome in 100 μl, 25 mM Tris, 0.25 mM EDTA pH 8.0, 37°C, 3 h, RP-HPLC C8, UV 223 nm, against control without 20S): No significant degradation |
| GRKKRAAARRPS [Tat1_A6-8] | 342 | 340 | – |
| GRAAARQRRRPS [Tat1_A3-5] | 1570 | 1570 | – |
| GRKAAAQRRRPS [Tat1_A4-6] | 1720 | 1720 | EC50 (human 20S proteasome [2]; Repetition 1): 12800 ± 0.155 nM; EC50 (human 20S proteasome [2]; Repetition 2): 10600 ± 0.0436 nM; EC50 (human 20S proteasome [2]; Repetition 3): 12000 ± 0.084 nM; Kd (human 20S proteasome [2]; Repetition2, read-out: Kd): 10600 nM; Kd (human 20S proteasome [2]; [7]): 12100 nM |
| octa-arginine | – | – | IC50, proteasome peptidase activity in vitro (20S proteasome): high-nanomolar |
| N=C(N)NCCC[C@H](NC(=O)CN)C(=O)N[C@@H](CCCCN)C(=O)N1Cc2ccccc2C[C@@H]1C(=O)N1[C@H](C(=O)N[C@@H](CCCNC(=N)N)C(=O)N[C@@H](CCC(N)=O)C(=O)N2Cc3ccccc3C[C@H]2C(=O)N2[C@@H](C(=O)N[C@@H](CCCNC(=N)N)C(=O)N3CCC[C@H]3C(=O)N[C@@H](CO)C(=O)O)C[C@H]3CCCC[C@H]32)C[C@@H]2CCCC[C@@H]21 [Tat1_4-5TO,8-9TOD] (H-GRK[dTic][Oic]RQ[Tic][dOic]RPS-OH) | 245 | 240 | Kd (human 20S proteasome [2]; read-out: Dissociation constants Kd calculated on the basis of the thermophoresis curves, 3 nM labeled 20S, 50 mM Tris/HCl, 0.5 mM EDTA pH 8.0, 0.005% SDS, 25°C, mean (±SD)): 8380 nM |
| GRAARRQRRRPS [Tat1_A3-4] | 245 | 240 | – |
| GRKKARAAARPS [Tat1_A5,7–9] | 1530 | 1530 | – |
| N=C(N)NCCC[C@H](NC(=O)CN)C(=O)N[C@@H](CCCCN)C(=O)N[C@@H](CCCCN)C(=O)N[C@@H](CCCNC(=N)N)C(=O)N[C@@H](CCCNC(=N)N)C(=O)N[C@@H](CCC(N)=O)C(=O)N1Cc2ccccc2C[C@@H]1C(=O)N1[C@H](C(=O)N[C@@H](CCCNC(=N)N)C(=O)N2CCC[C@H]2C(=O)N[C@@H](CO)C(=O)O)C[C@@H]2CCCC[C@@H]21 [Tat1_8-9TO] | 170 | 170 | EC50 (human 20S proteasome [2]; Repetition 1): 8880 ± 0.0559 nM; EC50 (human 20S proteasome [2]; Repetition 2): 10800 ± 0.0559 nM; EC50 (human 20S proteasome [2]; Repetition 3): 11500 ± 0.0559 nM; Kd (human 20S proteasome [2]; [7]): 10400 nM |
| GRKKRRAAARPS [Tat1_A7-9] | 281 | 280 | – |
| GRKKAAQRRRPS [Tat1_A5-6] | 321 | 320 | – |
| GAAARRQRRRPS [Tat1_A2-4] | – | 450 | Increase of IC50 relative to Tat1 (human 20S proteasome [1]; ChT-L activity of SDS activated 20S proteasome): about two times higher |
| GRAAAAQRRRPS [Tat1_A3-6] | 4240 | 4240 | – |
